A word on the melting point: it is the temperature, or range, at which the solid turns liquid.

This passage reports melting point results from patent publication US20140287916A1, “PESTICIDAL COMPOUNDS” (SYNGENTA PARTICIPATIONS AG, priority 2011, published 2014).

`O=C(NCC1(c2nc(C3CC3)cs2)CC1)c1ccccc1C(F)(F)F` [A.10, N-[[1-(4-cyclopropylthiazol-2-yl)cyclopropyl]methyl]-2-(trifluoromethyl)benzamide] displayed a melting point of 83 to 84 °C. `O=C(NCC1(c2nc(Cl)cs2)CC1)c1cccnc1C(F)(F)F` [A.21, N-[[1-(4-chlorothiazol-2-yl)cyclopropyl]methyl]-2-(trifluoromethyl)pyridine-3-carboxamide] showed a melting point of 146 to 147 °C.

For `O=C(NCC1(c2ncc(C(F)(F)F)s2)CC1)c1ccccc1C(F)(F)F` [A.29, 2-(trifluoromethyl)-N-[[1-[5-(trifluoromethyl)thiazol-2-yl]cyclopropyl]methyl]benzamide], the melting point was 94 to 96 °C.
